{"source": "patent US8481521B2", "about": "“Methods of treating cell proliferative disorders” (Rigel Pharmaceuticals, Inc., priority 2005, dated 2013)", "key": {"[1]": {"test": "Solubility of drug and phosphate prodrug", "format": "physicochemical", "details": "water solubility; read-out: Solubility", "excerpt": "In contrast, Compound 4 is highly polar at neutral pH. Measured solubility values are consistent with the predicted cLogD values at pH=7.5."}, "[2]": {"system": "MV4-11 human acute myeloid leukemia cells", "format": "in vivo", "details": "for Hazard ratio: 40 mg/kg PO bid vs vehicle; for % Reduction from Vehicle Control, Bone Marrow / % Reduction from Vehicle Control, Peripheral blood: 40 mg/kg PO, bid daily", "experimental": "At the end of the acclimatization period for the animals (>3 weeks in this study), mice were pretreated with sterile filtered (using a […] syringe filter) Cyclophosphamide prepared in 0.9% sterile saline (Sigma, St Louis, Mo.) by intraperitoneal injection of 150 mg/kg/day for 2 days followed by a rest period of 72 hours prior to intravenous (i.v.) injection of leukemia cells via the lateral tail vein, as described below.\nOn day 0 of the study, mice were inoculated once by intravenous tail vein injection of 5 or 10 million human MV4-11 leukemia cells resuspended in 100 microliters of fresh media as outlined in Table 1.\nAfter mice were inoculated with human MV4-11 cells (day 0), dosing began on day 17 of the study. Mice were dosed orally (PO) twice daily (bid) for the duration of the study with either Vehicle or 40 mg/kg VII at 5 mL/kg dose volume with a minimum separation of 8 hours between doses\nThis study was designed to assess the effects of various doses of VII on tumor engraftment, disease progression, severity, and overall survival in a murine intravenous MV4-11 leukemia model using NOD-SCID immunocompromised mice as a host with cyclophosphamide pretreatment to enhance tumor engraftment.\nThis study was conducted in an effort to confirm a previous efficacy data from study, but also to determine if 5 or 10 million cell inoculations would yield similar inconsistencies in tumor cell engraftment in the bone marrow and peripheral blood or alter the resultant mortality in these mice. Since a detectable level of engraftment in some animals was observed as early as 4 weeks post tumor cell injection in pilot studies and historical efficacy data had been determined with this regimen, animals were treated orally (PO) with vehicle or R945788 calcium salt at 40 mg/kg on a twice per day (bid) schedule, every day beginning approximately 2 weeks after tumor cell injection. Animals were continued on this regimen until euthanized or until the end of the study. In this experiment, all surviving mice were terminated when mice reached approximately 5 months of age (day 83 of the study) in order to limit the affects of the spontaneous thymoma development, which can be seen in NOD-SCID mice beginning at approximately 5-6 months of age.\nOn day 0 (Aug. 12, 2005), mice were i.v. injected with human MV4-11 cells in fresh medium at 5 or 10 million cells per mouse via the lateral tail vein. By day 3 post MV4-11 cell injection (on Aug. 15, 2005), one mouse was excluded due to early death from excessive body weight loss prior to randomization or treatment, potentially due to cyclophosphamide treatment. Remaining animals were randomized into treatment groups using body weights and dosing began on day 17 post cell injection (Aug. 29, 2005). Mean body weights of groups 1-4 were 20.66±0.43, 20.23±0.41, 20.18±0.54, and 20.88±0.59, respectively. Treatment groups are outlined in Table 1:\nOverall disease severity was determined from a combination of body weight loss, clinical observations, necropsy findings, and quantitation of tumor cell engraftment in selected tissues. Mice were weighed 2-3 times weekly and percent weight change calculated. At the first indication of morbidity, hind limb paralysis with apparent wasting, severe cachexia or weight loss greater than 20%, involving lethargy, ruffled fur etc, as outlined in IACUC Protocol Rigel 6-2002 “Efficacy of Novel Chemotherapeutics in Human/Mouse Tumor Xenograft Models”, animals were removed from the study and euthanized. At sacrifice, animals were anesthetized with CO2 gas and blood was be collected by cardiocentesis. Blood from animal was transferred to K2EDTA coated Microtainer (lavendar top) tubes. Whole blood was placed indirectly on ice and processed for flow cytometric staining, as described in section below. To further assess disease severity, the location and description of palpable or suspected tumors on gross examination was carefully noted upon necropsy. […]"}, "[3]": {"test": "Stability of prodrug in rat plasma", "format": "in vitro ADME", "excerpt": "(§1) Although phosphate-containing prodrugs suitable for oral administration are of interest, skilled artisans will appreciate that prodrugs including phosphate-containing progroups R^P can be administered via other routes of administration, as phosphatases are distributed throughout the body. […] Thus, the only requirement is that the particular phosphate-containing progroup R^P selected should be removable under the conditions of intended use.\nThe presence of Phosphatase activity in rat plasma was confirmed using p-nitrophenyl phosphate—a known substrate for phosphatase."}, "[4]": {"system": "phosphorylated histone H3 (phH3)", "test": "Phosphorylated histone H3 immunohistochemistry of MV4-11 tumor xenografts", "format": "in vivo, human", "details": "vs vehicle treated MV4-11 xenografts", "experimental": "Proliferation was assessed ex vivo in formalin fixed tumor sections from three randomly selected mice from this study using immunohistochemical staining of human-specific phosphorylated histone H3 (phH3) as a marker for tumor cell proliferation. Human phH3 expression was reduced in tumor sections in a dose-dependent manner following treatment with VII."}, "[5]": {"test": "Conversion of prodrug to drug in microsome preparations", "format": "in vitro ADME, rat", "excerpt": "as §1"}, "pErk1/2 and pStat5": {"system": "pErk1/2 and pStat5", "test": "Immunohistochemical staining for pErk1/2 and pStat5 in MV4-11 tumor sections", "format": "in vivo", "details": "40 mg/kg VII, 26 days", "experimental": "Tumors were harvested from mice ˜2 hours following final dose of vehicle or 40 mg/kg VII."}, "[6]": {"details": "5 million cells, 40 mg/kg, at sacrifice, listed as VII"}}, "note": "Where “and” joins values, the source holds several entries; their conditions need not be identical. Equal values may be shown once. Entries after “also recorded” stand apart in the source; their conditions may differ. Read-outs that look alike come from different tables or passages of the source."}
{"smiles": "COc1cc(Nc2ncc(F)c(Nc3ccc4c(n3)N(COP(=O)(O)O)C(=O)C(C)(C)O4)n2)cc(OC)c1OC", "note": "[Compound 4, N4-(2,2-dimethyl-4-[(dihydrogenphosphonoxy)methyl]-3-oxo-5-pyrido[1,4]oxazin-6-yl)-5-fluoro-N2-(3,4,5-trimethoxyphenyl)-2,4-pyrimidinediamine]", "values": [{"measurement": "solubility", "setting": "[1]", "value": "> 5000", "unit": "µg/mL"}, {"measurement": "Median DOD (day of death)", "setting": "[2]; 5E6 MV4-11 cells i.v., 40 mg/kg PO bid from day 17", "value": 79, "unit": "days"}, {"measurement": "Hazard ratio", "setting": "[2]; 5E6 cells", "value": 3.5}, {"measurement": "% ILS (percent increase in life-span)", "setting": "[2]; 5E6 cells, 40 mg/kg PO bid, vs vehicle median DOD 54 days", "value": 45, "unit": "%"}, {"measurement": "animals necropsied showing visible or palpable tumors", "setting": "[2]; 5 million cells, 40 mg/kg", "value": "3 out of 11"}, {"measurement": "animals terminated by study termination", "setting": "[2]; 5 million cells, 40 mg/kg", "value": "7 of 12"}, {"measurement": "surviving mice at day 83", "setting": "[2]; 5 million cells, 40 mg/kg PO bid, group of 12", "value": 5}, {"measurement": "% Reduction from Vehicle Control, Bone Marrow", "setting": "[2]; 5 million cells", "value": 96, "unit": "%"}, {"measurement": "% Reduction from Vehicle Control, Peripheral blood", "setting": "[2]; 5 million cells", "value": 99, "unit": "%"}, {"measurement": "Bone Marrow: Mean % Tumor Cells (CD33+HLA+)", "setting": "[2]; [6]", "value": "1% and 1.03%"}, {"measurement": "Peripheral Blood: Mean % Tumor Cells (CD33+HLA+)", "setting": "[2]; [6]", "value": "0.6% and 0.59%"}, {"measurement": "Hazard ratio", "setting": "[2]; 10E6 cells", "value": 7.6}, {"measurement": "animals necropsied showing visible or palpable tumors", "setting": "[2]; 10 million cells, 40 mg/kg", "value": "7 out of 13"}, {"measurement": "animals terminated by study termination", "setting": "[2]; 10 million cells, 40 mg/kg", "value": "4 out of 13"}, {"measurement": "surviving mice at day 83", "setting": "[2]; 10 million cells, 40 mg/kg PO bid, group of 13", "value": 9}, {"measurement": "% Reduction from Vehicle Control, Bone Marrow", "setting": "[2]; 10 million cells", "value": 59, "unit": "%"}, {"measurement": "% Reduction from Vehicle Control, Peripheral blood", "setting": "[2]; 10 million cells, all samples", "value": 80, "unit": "%"}, {"measurement": "Peripheral Blood: Mean % Tumor Cells (CD33+HLA+)", "setting": "[2]; 10 million cells, 40 mg/kg, all samples", "value": 10.32, "unit": "%"}, {"measurement": "Bone Marrow: Mean % Tumor Cells (CD33+HLA+)", "setting": "[2]; 10 million cells, 40 mg/kg, at sacrifice, listed as VII", "value": "5% and 5.21%"}, {"measurement": "mice survived to Day 83", "setting": "[2]; 10 million cells, 40 mg/kg, vehicle 0%", "value": "Over 50%"}, {"measurement": "tolerability in NOD-SCID mice", "setting": "[2]; mouse, in vivo", "value": "well tolerated"}, {"measurement": "stability in rat plasma (hydrolysis to Compound III)", "setting": "[3]", "value": "metabolize to the active drug Compound III; also recorded: unstable"}, {"measurement": "inhibition of phH3 staining", "setting": "[4]; 20 mg/kg VII", "value": 53, "unit": "%"}, {"measurement": "inhibition of phH3 staining", "setting": "[4]; 40 mg/kg VII", "value": 71, "unit": "%"}, {"measurement": "conversion to drug Compound III in intestinal and hepatic microsomes", "setting": "[5]; microsomes from a different source", "value": "metabolize to the active drug Compound III; also recorded: conversion of Compound 4 to Compound III was observed"}, {"measurement": "conversion to drug Compound III in microsomal preparations", "setting": "[5]; preparations obtained from Xenotech", "value": "failed to convert"}, {"measurement": "STATS and ERK1/2 phosphorylation in tumor sections", "setting": "pErk1/2 and pStat5", "value": "reduced"}]}
